# Settings: Week 4; <50% AEC reduction at Week 16
smiles,measurement,value
"CCCN[C@@H]1CCc2nc(N)sc2C1 [Dexpramipexole, (6R)-2-amino-4,5,6,7-tetrahydro-6-(propylamino)benzothiazole]","Pre-BD FEF25-75 % change from baseline, Max",−9%
same,"Pre-BD FEF25-75 % change from baseline, Mean ± SD",−19.8 ± 9.58%
same,"Pre-BD FEF25-75 % change from baseline, Median",−19.3%
same,"Pre-BD FEF25-75 % change from baseline, Min",−32%
same,"Pre-BD FEF25-75 % change from baseline, Q1",−27%
same,"Pre-BD FEF25-75 % change from baseline, Q3",−13%
same,"Pre-BD FEF25-75 Observed, Max",950 mL/s
same,"Pre-BD FEF25-75 Observed, Mean ± SD",507.5 ± 333.30 mL/s
same,"Pre-BD FEF25-75 Observed, Median",440.0 mL/s
same,"Pre-BD FEF25-75 Observed, Min",200 mL/s
same,"Pre-BD FEF25-75 Observed, Q1",255 mL/s
same,"Pre-BD FEF25-75 Observed, Q3",760 mL/s
same,"Pre-BD FEF25-75 change from baseline, Max",-30 mL/s
same,"Pre-BD FEF25-75 change from baseline, Mean ± SD",-167.5 ± 191.03 mL/s
same,"Pre-BD FEF25-75 change from baseline, Median",-100.0 mL/s
same,"Pre-BD FEF25-75 change from baseline, Min",-440 mL/s
same,"Pre-BD FEF25-75 change from baseline, Q1",-300 mL/s
same,"Pre-BD FEF25-75 change from baseline, Q3",-35 mL/s
same,"Pre-BD FEV1 % change from baseline, Max",−1%
same,"Pre-BD FEV1 % change from baseline, Mean ± SD",−16.4 ± 15.81%
same,"Pre-BD FEV1 % change from baseline, Median",−13.3%
same,"Pre-BD FEV1 % change from baseline, Min",−37%
same,"Pre-BD FEV1 % change from baseline, Q1",−28%
same,"Pre-BD FEV1 % change from baseline, Q3",−4%
same,"Pre-BD FEV1 Observed, Max",1680 mL
same,"Pre-BD FEV1 Observed, Mean ± SD",1260.0 ± 511.53 mL
same,"Pre-BD FEV1 Observed, Median",1420.0 mL
same,"Pre-BD FEV1 Observed, Min",520 mL
same,"Pre-BD FEV1 Observed, Q1",935 mL
same,"Pre-BD FEV1 Observed, Q3",1585 mL
same,"Pre-BD FEV1 change from baseline, Max",-20 mL
same,"Pre-BD FEV1 change from baseline, Mean ± SD",-212.5 ± 173.47 mL
same,"Pre-BD FEV1 change from baseline, Median",-215.0 mL
same,"Pre-BD FEV1 change from baseline, Min",-400 mL
same,"Pre-BD FEV1 change from baseline, Q1",-355 mL
same,"Pre-BD FEV1 change from baseline, Q3",-70 mL
same,"Pre-BD FVC % change from baseline, Max",0%
same,"Pre-BD FVC % change from baseline, Mean ± SD",−9.0 ± 13.97%
same,"Pre-BD FVC % change from baseline, Median",−2.9%
same,"Pre-BD FVC % change from baseline, Min",−30%
same,"Pre-BD FVC % change from baseline, Q1",−17%
same,"Pre-BD FVC % change from baseline, Q3",−1%
same,"Pre-BD FVC Observed, Max",3480 mL
same,"Pre-BD FVC Observed, Mean ± SD",2755.0 ± 729.41 mL
same,"Pre-BD FVC Observed, Median",2875.0 mL
same,"Pre-BD FVC Observed, Min",1790 mL
same,"Pre-BD FVC Observed, Q1",2215 mL
same,"Pre-BD FVC Observed, Q3",3295 mL
same,"Pre-BD FVC change from baseline, Max",-10 mL
same,"Pre-BD FVC change from baseline, Mean ± SD",-240.0 ± 350.90 mL
same,"Pre-BD FVC change from baseline, Median",-95.0 mL
same,"Pre-BD FVC change from baseline, Min",-760 mL
same,"Pre-BD FVC change from baseline, Q1",-450 mL
same,"Pre-BD FVC change from baseline, Q3",-30 mL
same,"Pre-BD Peak Flow % change from baseline, Max",428%
same,"Pre-BD Peak Flow % change from baseline, Mean ± SD",90.4 ± 224.72%
same,"Pre-BD Peak Flow % change from baseline, Median",−20.4%
same,"Pre-BD Peak Flow % change from baseline, Min",−25%
same,"Pre-BD Peak Flow % change from baseline, Q1",−24%
same,"Pre-BD Peak Flow % change from baseline, Q3",205%
same,"Pre-BD Peak Flow Observed, Max",211 L/min
same,"Pre-BD Peak Flow Observed, Mean ± SD",167.5 ± 49.57 L/min
same,"Pre-BD Peak Flow Observed, Median",180.5 L/min
same,"Pre-BD Peak Flow Observed, Min",98 L/min
same,"Pre-BD Peak Flow Observed, Q1",133 L/min
same,"Pre-BD Peak Flow Observed, Q3",202 L/min
same,"Pre-BD Peak Flow change from baseline, Max",171 L/min
same,"Pre-BD Peak Flow change from baseline, Mean ± SD",11.0 ± 107.23 L/min
same,"Pre-BD Peak Flow change from baseline, Median",-35.5 L/min
same,"Pre-BD Peak Flow change from baseline, Min",-56 L/min
same,"Pre-BD Peak Flow change from baseline, Q1",-49 L/min
same,"Pre-BD Peak Flow change from baseline, Q3",71 L/min

# Reference: patent US20250352520A1, “USE OF DEXPRAMIPEXOLE FOR THE TREATMENT OF EOSINOPHILIC COPD” (Areteia Therapeutics, Inc., priority 2024, published 2025)
